“Also recorded” adds a separate entry of the source.
Assays:
severe COVID-19 patients = test: Randomized controlled trial, clinical outcomes (seven-category ordinal scale, chest CT, mortality, lymphocyte recovery, supportive treatments); type: in vivo, human; details: for CT scan follow-up within 14 days: Improvement, %: P 0.07 vs control
Excerpt: As of the effective date of this application, no therapeutics have yet been proven effective for the treatment of severe COVID-19 with cytokine storm. Ruxolitinib, a potent and selective oral inhibitor of Janus kinase (JAK) 1 and JAK2, was proposed by Applicant to be beneficial in the treatment of cytokine storm. Applicant conducted a prospective, multicenter, single-blind, randomized controlled trial involving participants diagnosed as severe COVID-19 patients. The enrolled patients were randomly separated into two groups with a 1:1 allocation by an independent statistician in blocks of 4 for all 3 sites. Study number and treatment allocation codes were provided in sequentially numbered opaque envelops. Intervention group is treated with ongoing oral intake 5 mg of ruxolitinib (Jakafi®, Novartis Pharma Stein AG, Switzerland) twice a day based on the standard-of-care (SoC); the control group is treated with placebo plus SoC. The primary endpoint was the incidence of serious adverse events occurring up to 28 days and the time to clinical improvement. The secondary endpoint is the overall mortality at D28. This trial is registered at www.chictr.org.cn as ChiCTR-OPN-2000029580.
A prospective, single-blind, randomized controlled trial was designed. Participants diagnosed as positive for COVID-19 were enrolled for screening in three hospitals including Tongji hospital and No. 1 hospital in Wuhan and the Third Xiangya hospital in Changsha, China. The original protocol included secondary randomization in a treatment group for infusion of mesenchymal stem cells if the patient's clinical response had deteriorated within seven days after first randomization. Because no deterioration had occurred in patients of the treatment group within seven days after first randomization and secondary randomization was unnecessary, the protocol was updated correspondingly. This study was approved by the Medical ethics committee of Tongji Hospital, Tongji Medical College, Huazhong University of Science and Technology, Wuhan, China, registered at www.chictr.org.cn as ChiCTR-OPN-2000029580.
Participants. All participants were required to meet the following inclusion criteria: (1) enrolled patients met the diagnostic criterial for COVID-19. The diagnosis and the illness severity of COVID-19 were defined according to the Chinese management guideline for COVID-19 (version 5.0)^28; (2) patients were eligible if they were 18 years or older and younger than 75 years. (3) only severe cases were enrolled. Exclusion criterial included: (1) patients with other malignant tumors in the course of treatment; (2) patients with severe cardiovascular and metabolic disease in unstable status, even if treated with drugs; (3) patients with mental or severe psychiatric disorder who are unable to understand or abide the study protocols; (4) patients needing orotracheal intubation or invasive ventilation; (5) patients who cannot guarantee to complete the scheduled treatment plan and follow-up; (6) women of child-bearing age having positive pregnancy test or still lactating; (7) patients having other active infections; (8) patients having any conditions deemed to potentially affect the safety of the study protocols. Written informed consent was obtained from all patients or the patients' legal representative if the patient was too unwell to provide the consent.
Randomization and masking. The enrolled patients were then randomly allocated into two groups with a 1:1 allocation ratio by an independent statistician using permuted blocks of 4 for all 3 sites. Patient unique identification number and treatment allocation codes were provided in sequentially numbered opaque envelops. Treating physicians were aware of group allocations while the enrolled participants, staff at trial sites, CT radiologists and laboratory personnel were masked to the trial group assignment.
Procedures. The first day of randomization was designated as D0. […]

SARS-CoV-2 [1] = test: Virus clearance time by RT-PCR on throat swab; type: in vivo; details: median (IQR); patients with positive RT-PCR on throat swab; P 0.85 (table), P=0.65
SARS-CoV-2 [2] = test: SARS-CoV-2 copies number in blood by one-step RT-ddPCR; type: in vivo
48 cytokines in serum = test: Serum cytokines, Bio-Plex Pro Human Cytokines 48-Plex Screening assay; details: in vivo

Structure (SMILES): N#CC[C@H](C1CCCC1)n1cc(-c2ncnc3[nH]ccc23)cn1 [Ruxolitinib, (3R)-3-cyclopentyl-3-[4-(7H-pyrrolo[2,3-d]pyrimidin-4-yl)pyrazol-1-yl]propanenitrile]
- CT scan follow-up within 14 days: Progression, % (severe COVID-19 patients; chest CT, N = 20): (5.0%)
- CT scan follow-up within 14 days: Stable, % (severe COVID-19 patients; chest CT, N = 20): (5.0%)
- CT scan follow-up within 14 days: Improvement, % (severe COVID-19 patients; chest CT, N = 20): (90.0%)
- CT scan follow-up within 14 days: Improvement, % (severe COVID-19 patients; chest CT, N = 20, listed as ruxolitinib): 90%
- Time from randomization to death (severe COVID-19 patients; median (IQR)): 0 days
- Time from randomization to discharge (severe COVID-19 patients; median (IQR), P 0.94 vs control): 17 days
- Time to lymphocyte recovery (severe COVID-19 patients; median (IQR), patients with lymphopenia, log-rank P 0.03 vs control): 5 days
- Time to clinical improvement (severe COVID-19 patients; median (IQR), primary efficacy endpoint, log-rank P 0.15 vs control): 12 days
- Clinical improvement Day 28, % (severe COVID-19 patients; seven-category ordinal scale, N = 20, P 0.23 vs control): (100.0%)
- Clinical improvement Day 14, % (severe COVID-19 patients; seven-category ordinal scale, N = 20, P 0.35 vs control): (60.0%)
- Clinical improvement Day 7, % (severe COVID-19 patients; seven-category ordinal scale, N = 20, P 0.41 vs control): (20.0%)
- Clinical improvement Day 21, % (severe COVID-19 patients; seven-category ordinal scale, N = 20, P 1.00 vs control): (90.0%)
- Virus clearance time (SARS-CoV-2 [1]): 13 days
- Blood viral RNA loads at D1 (SARS-CoV-2 [2]; mean (±SEM), baseline, P=0.57 vs control): 94±26 copies per milliliter
- Viral load at discharge (SARS-CoV-2 [2]; vs SoC alone, P=0.63): did not differ
- Average fold-change of 48 cytokines (48 cytokines in serum): 0.466
- Average values of 48 cytokines (48 cytokines in serum): decreased significantly; also recorded: all average values of 48 cytokines decreased
- Level of MIP-1α (48 cytokines in serum): markedly decreased
- Level of interleukin-6 (IL-6) (48 cytokines in serum): markedly decreased
- Level of interleukin-12 (IL-12) (p40) (48 cytokines in serum): markedly decreased
- Level of macrophage inflammatory protein 1β (MIP-1β) (48 cytokines in serum): markedly decreased
- Level of macrophage migration inhibitory factor (MIF) (48 cytokines in serum): markedly decreased
- Level of nerve growth factor β (NGF-β) (48 cytokines in serum): markedly decreased
- Level of vascular endothelial growth factor (VEGF) (48 cytokines in serum): markedly decreased

— patent US11324750B2, “Compositions and methods for the treatment of severe acute respiratory syndrome coronavirus 2 (SARS-CoV-2) infection” (Children's Hospital Medical Center, priority 2020, dated 2022)
